Assay results as given in patent US12502362B2, “Inhibitors of nucleotidyltransferase superfamily enzymes as antibiotics” (priority 2017, dated 2025).
Converted amounts (≈) assume the structure as drawn.

Experiments:
E. coli (ATCC 35218) = experiment: microbe, parasite or virus in culture; format: cell-based; conditions: for MIC80 E. coli: E. coli ATCC 35218; for MIC80: Escherichia coli, ATCC35218, read-out: MIC80 E. coli, E. coli ATCC 35218
[1] = tested on: Acinetobacter baumannii (Abl, from a patient); experiment: microbe, parasite or virus in culture; format: cell-based
[2] = tested on: Enterobacter cloacae complex; experiment: microbe, parasite or virus in culture; format: cell-based
Description: (§1) To further characterize the compounds, the minimal inhibitory concentration (MIC80) were determined for selected compounds. MIC80 is defined as the compound concentration at which ≥80% bacterial growth is inhibited compare to untreated controls. Meanwhile, for the selected compounds, cytotoxicity assays (CC50) were performed on a HepG2-derived hepatoblastoma cell line (HEPDES19). […] For CC50 evaluation, soluble tetrazolium dye (MTS) was used to measure mitochondrial toxicity in a human hepatoblastoma cell line (18). The bacteria (E. coli, S. saprophyticus and A. baumannii) used in MIC80 measurements were the same as that in the primary screening, but for Staphylococcus, S. aureus is used primarily because it is a common pathogen in Staphylococcaeae family, while S. saprophyticus is part of the normal human flora.
(§2) All these MDR-bacteria are at least resistant to two classes of the antibiotics among five groups and/or specific antibiotics including quinolones/fluorquinolones, carbapenems, cephalosporins, aminoglycosides and piperacillin-tazobactam.

Morganella morganii = experiment: microbe, parasite or virus in culture; format: cell-based
Description: as §1, §2

MDR Enterobacteriaceae = experiment: organism not typed; format: cell-based
Description: as §1, §2

Citrobacter koseri = experiment: microbe, parasite or virus in culture; format: cell-based
Description: as §1, §2

MDR E. coli = experiment: microbe, parasite or virus in culture; format: cell-based
Description: as §1, §2

Klebsiella pneumoniae = experiment: microbe, parasite or virus in culture; format: cell-based
Description: as §1, §2

[3] = tested on: HepG2-derived hepatoblastoma cell line (HEPDES19); experiment: Cytotoxicity assay (CC50), MTS; format: cell-based, human; conditions: HEPDES19 cells
Description: as §1

[4] = tested on: Coagulase negative Staphylococcus; experiment: MIC80 on coagulase negative Staphylococcus; format: cell-based
Description: as §1, with “(HEPDES19). […] For the MIC80 measurements, a 1.5 fold dilution series of the compounds was prepared in Mueller-Hinton II broth.” for “(HEPDES19).”, “flora. S. aureus (ATCC 29213) is methicillin-sensitive Staphylococcus aureus (MSSA) strain and it was used as a model strain to measure the MIC80.” for “flora.”
(§3) It was also tested whether compounds #63 and #285 can inhibit other coagulase-negative Staphylococcus (CNS) including S. epidermidis, S. hominis, etc. […] .

S. aureus (ATCC 29213) = experiment: MIC80 on S. aureus; format: cell-based, Staphylococcus aureus; conditions: Staphylococcus aureus, ATCC 29213 / MSSA, read-out: MIC80 S. aureus, S. aureus ATCC 29213 (MSSA); ≥80% growth inhibition
[5] = tested on: S. aureus ATCC strains and methicillin-resistant Staphylococcus aureus (MRSA); experiment: MIC80 on S. aureus ATCC strains and MRSA; format: cell-based
Description: as §1

Staphylococcus hominis = experiment: MIC80 on S. hominis; format: cell-based
Description: as §1, with “(HEPDES19). […] For the MIC80 measurements, a 1.5 fold dilution series of the compounds was prepared in Mueller-Hinton II broth.” for “(HEPDES19).”, “flora. S. aureus (ATCC 29213) is methicillin-sensitive Staphylococcus aureus (MSSA) strain and it was used as a model strain to measure the MIC80.” for “flora.”
as §3

[6] = tested on: Staphylococcus epidermidis; experiment: MIC80 on S. epidermidis; format: cell-based
Description: as §1, with “(HEPDES19). […] For the MIC80 measurements, a 1.5 fold dilution series of the compounds was prepared in Mueller-Hinton II broth.” for “(HEPDES19).”, “flora. S. aureus (ATCC 29213) is methicillin-sensitive Staphylococcus aureus (MSSA) strain and it was used as a model strain to measure the MIC80.” for “flora.”
as §3

[7] = Cytotoxicity assay (CC50), MTS; format: cell-based, human; conditions: human, HepG2-derived hepatoblastoma cell line (HEPDES19), HEPDES19 cells
Description: as §1

[8] = tested on: S. aureus and/or S. saprophyticus; experiment: MIC80 on S. aureus and/or S. saprophyticus; format: cell-based; conditions: read-out: MIC80 against S. aureus and/or S. saprophyticus
Description: as §1, with “(HEPDES19). […] For the MIC80 measurements, a 1.5 fold dilution series of the compounds was prepared in Mueller-Hinton II broth.” for “(HEPDES19).”, “flora. S. aureus (ATCC 29213) is methicillin-sensitive Staphylococcus aureus (MSSA) strain and it was used as a model strain to measure the MIC80.” for “flora.”

CCn1cc(C(=O)O)c(=O)c2cnc(N3CCN(C(=O)NC)CC3)nc21 [Compound 322]
inhibition of E. coli (in words) (E. coli (ATCC 35218)): only modestly inhibited
MIC80 E. coli (E. coli (ATCC 35218)): 29.6 µM (≈ 10.7 µg/mL)
MIC80 A. baumannii ([1]; A. baumannii Ab1, MDR patient isolate): >100 µM
MIC80 ([2]; Ecc1 (Enterobacter cloacae complex)): 44.4 µM (≈ 16 µg/mL)
MIC80 ([2]; one Enterobacter cloacae complex strain): 66.7 µM (≈ 24 µg/mL)
MIC80 (Morganella morganii; Mm1 (Morganella morganii)): >100 µM
inhibition of MDR Enterobacteriaceae (in words) (MDR Enterobacteriaceae; except one MDR E. coli and one Enterobacter cloacae complex strain): No obvious inhibition
MIC80 (Citrobacter koseri; Ck1 (Citrobacter koseri)): >100 µM
MIC80 (MDR E. coli; Ec1 (MDR E. coli)): >100 µM
MIC80 (MDR E. coli; Ec2 (MDR E. coli)): 66.7 µM (≈ 24 µg/mL)
MIC80 (MDR E. coli; Ec3 (MDR E. coli)): >100 µM
MIC80 (MDR E. coli; Ec4 (MDR E. coli)): >100 µM
MIC80 (MDR E. coli; Ec5 (MDR E. coli)): >100 µM
MIC80 (MDR E. coli; one MDR E. coli): 44.4 µM (≈ 16 µg/mL)
MIC80 (Klebsiella pneumoniae; Kp1 (Klebsiella pneumonia)): >100 µM
MIC80 (Klebsiella pneumoniae; Kp6 (Klebsiella pneumonia)): >100 µM
CC50 [3]: ≥ 100 µM

COc1ccccc1C(=O)Oc1cccccc1=O [Compound 285]
MIC80 ([4]; CNS1 (Coagulase negative Staphylococcus)): 9.9 µM (≈ 2.54 µg/mL)
MIC80 ([4]; CNS2 (Coagulase negative Staphylococcus)): 6.6 µM (≈ 1.69 µg/mL)
MIC80 (S. aureus (ATCC 29213)): 10.3 µM (≈ 2.64 µg/mL)
MIC80 ([5]; ATCC 25923 / MRSA, S. aureus ATCC 25923): 8.8 µM (≈ 2.26 µg/mL)
MIC80 ([5]; ATCC 29213 / MRSA, S. aureus ATCC 29213 (Table 3)): 8.8 µM (≈ 2.26 µg/mL)
MIC80 ([5]; BAA-976 / MRSA, S. aureus ATCC BAA 976): 8.8 µM (≈ 2.26 µg/mL)
MIC80 ([5]; BAA-977 / MRSA, S. aureus ATCC BAA 977): 8.8 µM (≈ 2.26 µg/mL)
MIC80 ([5]; MRSA, Sa1 (MRSA)): 8.8 µM (≈ 2.26 µg/mL)
MIC80 ([5]; MRSA, Sa2 (MRSA)): 8.8 µM (≈ 2.26 µg/mL)
MIC80 ([5]; MRSA, Sa3 (MRSA)): 8.8 µM (≈ 2.26 µg/mL)
MIC80 ([5]; MRSA, Sa5 (MRSA)): 8.8 µM (≈ 2.26 µg/mL)
MIC80 ([5]; MRSA, Sa6 (MRSA)): 8.8 µM (≈ 2.26 µg/mL)
MIC80 ([5]; MRSA, Sa7 (MRSA)): 8.8 µM (≈ 2.26 µg/mL)
MIC80 ([5]; MRSA, Sa8 (MRSA)): 8.8 µM (≈ 2.26 µg/mL)
MIC80 ([5]; MRSA, Sa9 (MRSA)): 8.8 µM (≈ 2.26 µg/mL)
MIC80 ([5]; MRSA, Sa10 (MRSA)): 8.8 µM (≈ 2.26 µg/mL)
MIC80 ([5]; MRSA, Sa11 (MRSA)): 8.8 µM (≈ 2.26 µg/mL)
MIC80 ([5]; MRSA, Sa12 (MRSA)): 8.8 µM (≈ 2.26 µg/mL)
MIC80 ([5]; MRSA, Sa14 (MRSA)): 8.8 µM (≈ 2.26 µg/mL)
MIC80 ([5]; MRSA, Sa15 (MRSA)): 5.9 µM (≈ 1.51 µg/mL)
MIC80 ([5]; MRSA, Sa16 (MRSA)): 8.8 µM (≈ 2.26 µg/mL)
MIC80 ([5]; MRSA, Sa17 (MRSA)): 8.8 µM (≈ 2.26 µg/mL)
MIC80 ([5]; MRSA, Sa18 (MRSA)): 8.8 µM (≈ 2.26 µg/mL)
MIC80 ([5]; MRSA, Sa19 (MRSA)): 8.8 µM (≈ 2.26 µg/mL)
MIC80 ([5]; MRSA, Sa20 (MRSA)): 13.2 µM (≈ 3.38 µg/mL)
MIC80 ([5]; MRSA, Sa21 (MRSA)): 5.9 µM (≈ 1.51 µg/mL)
MIC80 ([5]; MRSA, Sa22 (MRSA)): 5.9 µM (≈ 1.51 µg/mL)
MIC80 ([5]; MRSA, Sa23 (MRSA)): 8.8 µM (≈ 2.26 µg/mL)
MIC80 (Staphylococcus hominis; Sh1 (Staphylococcus hominis)): 9.9 µM (≈ 2.54 µg/mL)
MIC80 (Staphylococcus hominis; Sh2 (Staphylococcus hominis)): 9.9 µM (≈ 2.54 µg/mL)
MIC80 (Staphylococcus hominis; Sh3 (Staphylococcus hominis)): 6.6 µM (≈ 1.69 µg/mL)
MIC80 (E. coli (ATCC 35218)): 100 µM (≈ 25.6 µg/mL)
MIC80 ([1]; Acinetobacter baumannii, read-out: MIC80 A. baumannii, A. baumannii Ab1, MDR patient isolate): 44.4 µM (≈ 11.4 µg/mL)
MIC80 ([6]; Se1 (Staphylococcus epidermidis)): 8.8 µM (≈ 2.26 µg/mL)
MIC80 ([6]; Se2 (Staphylococcus epidermidis)): 6.6 µM (≈ 1.69 µg/mL)
MIC80 ([6]; Se3 (Staphylococcus epidermidis)): 6.6 µM (≈ 1.69 µg/mL)
MIC80 ([6]; Se4 (Staphylococcus epidermidis)): 9.9 µM (≈ 2.54 µg/mL)
MIC80 ([6]; Se5 (Staphylococcus epidermidis)): 9.9 µM (≈ 2.54 µg/mL)
CC50 [3]: ≥ 100 µM
CC50 [7]: > 50 µM
MIC80 [8]: < 20 µM

O=C(Sc1cccccc1=O)c1ccccc1 [Compound 364]
MIC80 (S. aureus (ATCC 29213)): 13.2 µM (≈ 3.2 µg/mL)
MIC80 E. coli (E. coli (ATCC 35218)): 19.8 µM (≈ 4.8 µg/mL)
MIC80 (E. coli (ATCC 35218)): < 30 µM
MIC80 ([2]; Enterobacter cloacae): 33.3 µM (≈ 8.07 µg/mL)
MIC80 (Morganella morganii; Morganella morganii): > 33.3 µM
MIC80 (MDR Enterobacteriaceae; read-out: MIC80 on MDR Enterobacteriaceae): ≤ 20 µM
MIC80 (Citrobacter koseri; Citrobacter koseri): 33.3 µM (≈ 8.07 µg/mL)
MIC80 (MDR E. coli; Escherichia coli, Ec1 (MDR E. coli)): 33.3 µM (≈ 8.07 µg/mL)
MIC80 (MDR E. coli; Escherichia coli, Ec2 (MDR E. coli)): 14.8 µM (≈ 3.59 µg/mL)
MIC80 (MDR E. coli; Escherichia coli, Ec3 (MDR E. coli)): 22.2 µM (≈ 5.38 µg/mL)
MIC80 (MDR E. coli; Escherichia coli, Ec4 (MDR E. coli)): 33.3 µM (≈ 8.07 µg/mL)
MIC80 (Klebsiella pneumoniae; Klebsiella pneumoniae, Kp1 (Klebsiella pneumonia)): > 33.3 µM
MIC80 (Klebsiella pneumoniae; Klebsiella pneumoniae, Kp6 (Klebsiella pneumonia)): > 33.3 µM
CC50 [3]: 67 µM
CC50 [7]: > 50 µM
MIC80 [8]: < 20 µM
